Data from paper PMC8645336, “Benchmarking a highly selective USP30 inhibitor for enhancement of mitophagy and pexophagy” (Life Science Alliance, 2021).

Experiments:
Assay in all cases: biochemical
Set-up in all cases: Ubiquigent DUB profiler selectivity panel, remaining enzyme activity as % of control
Conditions in all cases: read-out: % of control remaining
Ataxin3L = target: T1, Ataxin3L (Homo sapiens, UniProt Q9H3M9)
T1 construct: gene ATXN3L
T1 sequence (Q9H3M9 1-355): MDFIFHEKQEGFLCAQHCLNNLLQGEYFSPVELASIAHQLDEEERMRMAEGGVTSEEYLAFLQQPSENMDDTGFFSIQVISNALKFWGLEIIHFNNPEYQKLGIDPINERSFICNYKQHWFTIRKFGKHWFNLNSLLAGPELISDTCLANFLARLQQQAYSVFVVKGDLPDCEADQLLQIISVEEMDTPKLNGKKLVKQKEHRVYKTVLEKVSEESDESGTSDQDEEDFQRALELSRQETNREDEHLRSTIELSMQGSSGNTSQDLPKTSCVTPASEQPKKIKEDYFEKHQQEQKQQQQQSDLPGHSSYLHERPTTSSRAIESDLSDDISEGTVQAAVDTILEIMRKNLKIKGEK
Procedure: (§1) Previous work has reported IC50 values for a series of benzosulphonamide inhibitors, of which all those <1 μM were screened for selectivity, in comparison to three other USP family members ([20], [21]). We have selected one of these compounds (CMPD-39, Fig 1A) for a more rigorous test of selectivity provided by the Ubiquigent DUB profiler screening platform comprising >40 DUBs. […] To test engagement of the inhibitor with USP30 applied to intact cells, we assayed competition with Ub-PA (Ub-propargylamide). Ub-PA covalently binds to the USP30 active site leading to a characteristic upshift on a SDS–PAGE gel ([22]). If a drug blocks access to the catalytic site, then the probe modification is blocked and the apparent molecular weight of USP30 shifts down accordingly. […] A robust proxy read-out for target engagement is the enhancement of TOMM20 ubiquitylation after mitochondrial depolarization ([6], [16]). This second assay indicates a maximal effect with 200 nM CMPD-39 applied to RPE1-YFP-PRKN cells (Fig 1D).  Figure 1. CMPD-39 is a selective USP30 inhibitor. (A) Chemical structure of CMPD-39. (B) DUB specificity screen (DUB profiler, Ubiquigent) with 1-100 μM CMPD-39. […] Samples were incubated with CMPD-39 for 2 h at the indicated concentrations, then incubated with HA-Ub-PA probe for 10 min at 37°C and immunoblotted as shown. Red arrow indicates unbound USP30; blue arrow represents probe bound USP30. (D) Inhibition of USP30 enhances the ubiquitylation of TOMM20 in YFP-PRKN over-expressing hTERT-RPE1 cells in a concentration dependent manner in response to mitophagy induction. Cells were treated for 1 h with DMSO or antimycin A and oligomycin A (AO; 1 μM each) in the absence or presence of CMPD-39 at the indicated concentrations, lysed, and analyzed by Western blotting. Black arrow indicates unmodified TOMM20, ubiquitylated species are indicated by red (mono-ubiquitylated) or blue arrow heads. […] Source data are available for this figure.

OTU1 = target: T2, OTU1 (Homo sapiens, UniProt Q5VVQ6)
T2 construct: gene YOD1
T2 sequence (Q5VVQ6 1-348): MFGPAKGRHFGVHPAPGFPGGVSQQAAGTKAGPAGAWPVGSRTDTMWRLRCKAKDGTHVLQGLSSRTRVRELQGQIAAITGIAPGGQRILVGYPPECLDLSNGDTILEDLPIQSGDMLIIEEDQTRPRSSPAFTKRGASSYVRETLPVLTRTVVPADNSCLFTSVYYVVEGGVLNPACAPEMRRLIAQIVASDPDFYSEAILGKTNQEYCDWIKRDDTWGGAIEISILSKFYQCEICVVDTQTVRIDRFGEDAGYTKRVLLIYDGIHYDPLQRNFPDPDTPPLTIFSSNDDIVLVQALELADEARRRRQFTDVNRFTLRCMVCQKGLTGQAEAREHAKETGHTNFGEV
Procedure: as §1

OTUD3 = target: T3, OTUD3 (Homo sapiens, UniProt Q5T2D3)
T3 sequence (Q5T2D3 1-398): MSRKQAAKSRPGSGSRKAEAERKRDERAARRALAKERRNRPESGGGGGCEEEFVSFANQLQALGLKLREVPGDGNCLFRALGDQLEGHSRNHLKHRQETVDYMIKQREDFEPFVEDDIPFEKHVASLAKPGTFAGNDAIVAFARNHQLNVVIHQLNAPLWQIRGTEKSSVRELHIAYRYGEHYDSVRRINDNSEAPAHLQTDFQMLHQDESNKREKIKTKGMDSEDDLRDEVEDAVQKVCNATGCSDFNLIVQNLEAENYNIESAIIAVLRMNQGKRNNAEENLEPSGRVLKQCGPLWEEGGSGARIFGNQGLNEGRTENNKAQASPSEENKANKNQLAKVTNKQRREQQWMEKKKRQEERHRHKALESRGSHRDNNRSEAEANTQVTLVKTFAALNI
Procedure: as §1

OTUD6A = target: T4, OTUD6A (Homo sapiens, UniProt Q7L8S5)
T4 sequence (Q7L8S5 1-288): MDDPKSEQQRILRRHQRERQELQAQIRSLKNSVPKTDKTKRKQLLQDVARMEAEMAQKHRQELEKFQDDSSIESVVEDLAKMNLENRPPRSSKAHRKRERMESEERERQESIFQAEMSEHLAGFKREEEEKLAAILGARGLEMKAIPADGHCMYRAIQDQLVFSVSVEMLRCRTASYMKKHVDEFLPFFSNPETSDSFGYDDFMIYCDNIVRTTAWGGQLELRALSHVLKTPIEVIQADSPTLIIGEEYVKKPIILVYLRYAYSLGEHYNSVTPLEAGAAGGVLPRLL
Procedure: as §1

USP12/UAF1/WDR20 = USP12/UAF1/WDR20 (Homo sapiens, UniProt O75317)
Procedure: as §1

USP20 = USP20 (Homo sapiens, UniProt Q9Y2K6)
Procedure: as §1

USP12/UAF1/WDR20, sequence (O75317 whole entry): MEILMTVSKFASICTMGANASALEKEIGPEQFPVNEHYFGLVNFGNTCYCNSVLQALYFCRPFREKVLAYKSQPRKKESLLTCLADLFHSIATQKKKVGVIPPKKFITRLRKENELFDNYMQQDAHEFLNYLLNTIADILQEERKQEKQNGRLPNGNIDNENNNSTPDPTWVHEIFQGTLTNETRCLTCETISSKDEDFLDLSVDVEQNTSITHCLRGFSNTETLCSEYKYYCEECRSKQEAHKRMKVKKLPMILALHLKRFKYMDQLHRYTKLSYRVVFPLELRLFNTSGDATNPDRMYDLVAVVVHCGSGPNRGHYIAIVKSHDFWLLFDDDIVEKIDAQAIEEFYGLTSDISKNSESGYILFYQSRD
USP12/UAF1/WDR20, sequence (Q8TAF3 whole entry partner): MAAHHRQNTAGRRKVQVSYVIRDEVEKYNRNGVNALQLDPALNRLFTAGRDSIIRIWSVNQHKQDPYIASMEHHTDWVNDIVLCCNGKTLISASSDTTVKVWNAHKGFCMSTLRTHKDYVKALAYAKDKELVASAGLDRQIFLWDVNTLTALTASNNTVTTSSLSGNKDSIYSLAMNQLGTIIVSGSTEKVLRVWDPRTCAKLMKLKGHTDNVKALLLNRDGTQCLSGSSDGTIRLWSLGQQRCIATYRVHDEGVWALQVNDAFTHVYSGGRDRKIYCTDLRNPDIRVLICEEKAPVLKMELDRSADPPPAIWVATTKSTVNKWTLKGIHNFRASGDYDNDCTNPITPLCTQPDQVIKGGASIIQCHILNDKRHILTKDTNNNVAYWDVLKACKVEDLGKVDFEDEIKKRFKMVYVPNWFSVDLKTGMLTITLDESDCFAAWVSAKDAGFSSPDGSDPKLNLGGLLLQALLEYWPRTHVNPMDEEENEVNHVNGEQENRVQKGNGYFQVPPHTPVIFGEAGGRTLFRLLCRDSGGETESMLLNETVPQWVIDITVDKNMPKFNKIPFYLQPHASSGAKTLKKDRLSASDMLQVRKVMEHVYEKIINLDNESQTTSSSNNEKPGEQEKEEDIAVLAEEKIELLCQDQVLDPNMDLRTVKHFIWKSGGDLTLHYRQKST
USP12/UAF1/WDR20, sequence (Q8TBZ3 whole entry partner): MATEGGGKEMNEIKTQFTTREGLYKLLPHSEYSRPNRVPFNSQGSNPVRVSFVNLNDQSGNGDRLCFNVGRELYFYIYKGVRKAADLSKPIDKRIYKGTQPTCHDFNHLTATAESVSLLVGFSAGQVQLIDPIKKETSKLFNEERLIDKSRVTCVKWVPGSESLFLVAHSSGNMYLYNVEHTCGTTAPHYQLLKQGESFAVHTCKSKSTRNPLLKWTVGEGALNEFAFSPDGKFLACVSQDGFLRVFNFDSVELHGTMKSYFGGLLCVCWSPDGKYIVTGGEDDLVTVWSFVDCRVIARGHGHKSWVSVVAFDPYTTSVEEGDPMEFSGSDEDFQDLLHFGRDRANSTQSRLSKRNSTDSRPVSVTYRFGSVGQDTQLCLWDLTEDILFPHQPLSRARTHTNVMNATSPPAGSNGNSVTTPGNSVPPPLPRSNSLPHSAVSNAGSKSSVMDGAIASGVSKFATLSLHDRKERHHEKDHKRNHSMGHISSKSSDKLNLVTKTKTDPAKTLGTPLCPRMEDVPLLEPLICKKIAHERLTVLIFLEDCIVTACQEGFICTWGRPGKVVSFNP
USP20, sequence (Q9Y2K6 whole entry): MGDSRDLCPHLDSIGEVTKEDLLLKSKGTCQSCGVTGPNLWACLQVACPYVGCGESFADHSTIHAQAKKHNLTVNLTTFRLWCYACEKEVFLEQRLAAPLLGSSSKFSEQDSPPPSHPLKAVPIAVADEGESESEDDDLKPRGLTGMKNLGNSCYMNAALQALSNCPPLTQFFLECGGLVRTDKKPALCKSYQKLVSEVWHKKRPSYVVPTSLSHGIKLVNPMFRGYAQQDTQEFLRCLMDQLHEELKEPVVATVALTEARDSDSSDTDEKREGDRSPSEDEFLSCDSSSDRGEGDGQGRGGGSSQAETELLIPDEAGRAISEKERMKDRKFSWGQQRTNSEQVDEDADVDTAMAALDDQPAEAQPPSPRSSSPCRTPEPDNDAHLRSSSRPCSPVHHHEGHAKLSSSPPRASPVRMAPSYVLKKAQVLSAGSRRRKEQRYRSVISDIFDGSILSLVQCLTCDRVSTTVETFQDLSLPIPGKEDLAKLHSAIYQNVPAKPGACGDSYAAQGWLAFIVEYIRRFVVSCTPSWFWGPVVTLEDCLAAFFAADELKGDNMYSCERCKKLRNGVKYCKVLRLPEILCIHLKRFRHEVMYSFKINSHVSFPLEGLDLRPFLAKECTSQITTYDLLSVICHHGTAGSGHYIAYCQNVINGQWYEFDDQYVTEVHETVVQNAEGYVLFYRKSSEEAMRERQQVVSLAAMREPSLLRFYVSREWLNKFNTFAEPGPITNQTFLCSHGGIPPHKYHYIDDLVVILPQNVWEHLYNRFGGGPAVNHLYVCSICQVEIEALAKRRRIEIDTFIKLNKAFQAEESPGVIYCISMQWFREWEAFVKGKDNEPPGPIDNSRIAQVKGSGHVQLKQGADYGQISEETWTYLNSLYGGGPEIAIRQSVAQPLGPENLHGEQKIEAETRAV

Q: Which remaining activity at 1 µM (Ataxin3L) does the source give for `CC(C)(C)NS(=O)(=O)c1ccc(NC(=O)[C@H](Cc2ccccc2)NC(=O)c2ccc(F)cc2)cc1` [compound 39, CMPD-39] here?
A: 103%

Q: And the remaining activity at 10 µM (Ataxin3L)?
A: 101%

Q: What about the remaining activity at 100 µM (Ataxin3L) of the same molecule?
A: 102%

Q: What about the remaining activity at 1 µM (OTU1) of the same molecule?
A: 105%

Q: What about the remaining activity at 10 µM (OTU1) of the same molecule?
A: 97.8%

Q: What about the remaining activity at 100 µM (OTU1) of the same molecule?
A: 101%

Q: And the remaining activity at 1 µM (OTUD3)?
A: 105%

Q: And the remaining activity at 10 µM (OTUD3)?
A: 101%

Q: And the remaining activity at 100 µM (OTUD3)?
A: 107%

Q: What about the remaining activity at 1 µM (OTUD6A) of the same molecule?
A: 103%

Q: And the remaining activity at 10 µM (OTUD6A)?
A: 99.3%

Q: And the remaining activity at 100 µM (OTUD6A)?
A: 101%

Q: And the remaining activity at 1 µM (USP12/UAF1/WDR20)?
A: 114%

Q: And the remaining activity at 10 µM (USP12/UAF1/WDR20)?
A: 106%

Q: And the remaining activity at 100 µM (USP12/UAF1/WDR20)?
A: 104%

Q: And the remaining activity at 1 µM (USP20)?
A: 113%

Q: And the remaining activity at 10 µM (USP20)?
A: 110%

Q: What about the remaining activity at 100 µM (USP20) of the same molecule?
A: 155%
